Assay results taken from patent US6514686B2, “Method and composition for modulating amyloidosis” (The University of British Columbia, priority 1997, dated 2003).

Key:
MDR1 = conditions: cited from earlier work
[1] = system: Aβ secretion in K269sw cells transfected with human pHaMDR1 construct; experiment: Aβ secretion from K269sw cells transiently transfected with pHaMDR1 (W0-2 western blot); format: cell-based; conditions: RU49953 0.01-1.0 μM, fifteen minutes; FIG. 12
Procedure: K269sw cells were cultured in 20 mm Falcon dishes in DMEM containing 10% FBS, and […] geneticin (GIBCO) to about 50% confluence and transiently transfected with the human pHaMDR1 construct using the calcium-phosphate precipitation technique as described above. Cells were replated at a density of 2.0×10^6 cells/dish 8 hours post-transfection on 10 cm petri dishes as described above. To assay for transfection efficiency, the β-gal gene was also co-transfected into the cells. β-gal staining was performed to determine the percentage of cells within each dish which were successfully transfected with the cDNA.
Exposures were performed without resuspending the cells. 10 mL of DMEM containing either control (DMSO), PMA (0.1 μM), or RU486 (0.001 μM, 0.01 μM, 0.1 μM, 1.0 μM), were prepared. DMSO concentrations in the medium were normalized to 0.01% (v/v). The supplemented medium was aspirated and 1 mL of the appropriate medium was added to the cells. […] 5 μL from each sample was collected for protein quantification. […]
SDS-PAGE was used to resolve secreted protein on a 16.5% tris-tricine polyacrylamide gel. […] Aβ was visualized using ECL and quantitation was performed as previously described. […]
Exposures were performed without resuspending the cells. […] 5 μL from each sample was collected for protein quantification. […]

SMILES: CC#C[C@]1(O)CC[C@H]2[C@@H]3CCC4=CC(=O)CCC4=C3[C@@H](c3ccc(N(C)C)cc3)C[C@@]21C [RU49953, 17β-hydroxy-11β, 17α-[4-dimethylaminophenyl]-17α prop-1-ynyl estra-4, 9 dien-3 one]
- binding to and block of MDR1 mediated efflux (MDR1): bind to and block
- effect on Aβ secretion [1]: reduces Aβ secretion in fifteen minutes in a dose-dependent manner
